Reference: a melting point compilation (Tetko et al.; mined from patent text by program, amines drawn as free bases though some values may be those of a salt)

melting point | SMILES
89 to 90 °C | CCCCCc1nc(C(=O)OCC)c(C)[nH]1
> 250 °C | O=C1CCCC2=C1C(c1ccc(F)c(Cl)c1)C1=C(CCS1)N2 (stereo unspecified)
170 to 173 °C | Cc1c[nH]c(=O)n(-c2cc(C(=O)OC(C)C)c(Cl)cc2F)c1=O
122 to 123 °C | COCCOCC(=O)Nc1cccc2c1C1(COc3cc4c(cc31)OCCO4)C(=O)N2C (stereo unspecified)
113 to 115 °C | CC(=O)C(O)C1OC(O)(N=C=O)C(O)(C(C)=O)C(O)(C(C)=O)C1(O)C(C)=O (stereo unspecified)
135 to 137 °C | O=[N+]([O-])c1cc(Cl)cc2c1OCCO2
92 to 94 °C | CCOC(=O)C1(Nc2cc(Cl)cc(Cl)c2)CC(C(=O)O)Nc2cc(Cl)cc(Cl)c21 (stereo unspecified)
145 to 147 °C | COC(=O)CN(C(=O)CSc1nc2c(F)c(F)cc(F)c2s1)c1ccccc1
261 to 262 °C | CCCCc1nc2cc(Cl)cc(C(=O)O)c2n1Cc1ccccc1Cl
144 to 146 °C | CC[C@H]1COC(=O)N1c1cc(C)nc(Oc2c(C)cc(Cl)cc2C)c1C(=O)OC
137 to 138 °C | CCCCC(Br)C(=O)c1cc(NC(C)=O)ccc1O (stereo unspecified)
116 to 119 °C | CCOC(=O)OC1=C(c2c(C)cc(C)cc2C)C(=O)N(N(C)C)C12CCN(OC)CC2
224 to 226 °C | CCCn1c(CCOC)nc2c(N)nc3cc(OC4CCN(S(C)(=O)=O)CC4)ccc3c21
54.5 to 55.5 °C | COC(=O)c1cccc2c(C)c(C)oc12
112 to 114 °C | CC1(c2ccc(OCc3ccccc3[Si](C)(C)C)cc2)OC(=O)N(Nc2ccccc2)C1=O (stereo unspecified)
192 to 193 °C | CC(C)c1ccc(OC(Cc2ccc(OCCNC(=O)c3ccc(-c4ccc(F)cc4)cc3)cc2)C(=O)O)cc1 (stereo unspecified)
93 to 101 °C | CCCCOCCOc1ccc(-c2ccc3c(c2)C=C(C(=O)Nc2ccc(S(=O)CCc4nncn4CCC)cc2)CCN3CCC)cc1 (stereo unspecified)
> 61 °C | OC1(CNCc2ccccc2)CCN(CCCc2c[nH]c3ccc(-n4cnnc4)cc23)C1 (stereo unspecified)
168 to 169 °C | CCOC(=O)N1CCN(c2nc(NC(C)=O)ccc2[N+](=O)[O-])CC1
146 to 147 °C | CCn1cc(CN(C(=O)C2CCCc3cc(O)ccc32)c2ccc(C(C)C)cc2)cn1 (stereo unspecified)
216 to 218 °C | CC(C)(C)OC(=O)c1ncn2c1c(C(=O)N1CCCC1)cc1ccccc12
95 to 96 °C | CCC(C)(C)c1c[nH]cn1
269 to 272 °C | O=c1cc(Nc2ccc3c(c2)CCC3)[nH]c(=S)[nH]1

melting point | SMILES
95 °C | CCOC(=O)C1=C(N(C)C)N=C(C)C(C(=O)OC)C1c1cccc([N+](=O)[O-])c1 (stereo unspecified)
204 to 206 °C | O=S(=O)(Nc1ccc2cnccc2c1)c1ccccc1
136 °C | Cc1ccc(OC(=O)n2c3c(c(=O)n(C4CCCCO4)c2=O)CCC3)cc1 (stereo unspecified)
192 to 203 °C | CC1Oc2c(Cc3ccccc3)cc(CN3CCN(c4ccc(C(=O)NC5CC5)cc4)CC3)cc2NC1=O (stereo unspecified)
188 to 189 °C | Cc1cccc(Nc2cc(Nc3cccc(O)c3)ncn2)c1
136 to 137 °C | CS(=O)(=O)c1nccc(-c2ccccc2)n1
128 to 129 °C | CC(C)(CS(=O)(=O)c1ccc(Oc2ccc(OC(F)(F)F)cc2)cc1)N(O)C=O
175 to 178 °C | COC(=O)c1nc(-c2ccc(Cl)c(F)c2F)nc(N)c1Br
60 to 61.5 °C | COc1ccccc1OC(=O)CCl
220 to 225 °C | O=C(Cc1ccc(CC(=O)Oc2cc(O)cc(O)c2)cc1)Oc1cc(O)cc(O)c1
221 to 222 °C | Cc1c(F)c(F)c(F)c2c1c(=O)c(C(=O)O)cn2-c1cccs1
148 to 150 °C | CN1CCOc2cc(S(=O)(=O)n3c(COC(C)(C)C(=O)O)cc4cc(C(F)(F)F)ccc43)ccc21
220 to 222 °C | Cc1nc(-n2cnn(CC3CC3(F)F)c2=O)sc1C(=O)O (stereo unspecified)
87 to 88 °C | CCOC(=O)C(C)(C)Oc1ccc(OCc2oc(-c3ccc(C(F)(F)F)cc3)cc2C(=O)O)cc1
87 to 90 °C | COc1ccc(COCc2nc(C(C)C)c(Sc3cc(Cl)cc(Cl)c3)n2CC(C)=O)cc1
248 to 250 °C | Cc1ccc2[nH]c(C)c(C(=O)c3ccc(Cl)c(S(N)(=O)=O)c3)c2c1
179 to 181 °C | N#CC(C#N)=CN(N=C(C#N)C#N)c1ccc([N+](=O)[O-])cc1
63 to 66 °C | CC(CO)c1ccc2c(=O)c3ccccc3ccc2c1 (stereo unspecified)
46 to 48 °C | C=CCSc1nnc(OC)c2c1CCCC2
131 to 134 °C | CCCCn1ccc(C=CC(=O)O)cc1=O
102 to 103 °C | CC(=O)c1sc(Oc2ccc3c(c2)OCO3)c2c1CCc1cnn(C)c1-2
145 to 146 °C | O=C1NC(=O)C(c2ccco2)N1 (stereo unspecified)
145 to 147 °C | O=C1c2ccccc2C(=O)N1Cc1cc(=O)c(OC(c2ccccc2)c2ccccc2)cn1OC(c1ccccc1)c1ccccc1

melting point | SMILES
240 to 242 °C | CCc1cc(-c2nnc3c4ccccc4c(OCc4ncnn4C)nn23)no1
127 to 128 °C | CCN1C(=O)C(C)(C)C(=O)N(C)c2cc(CN(CCn3ccc4ccsc4c3=O)Cc3cc(C)nn3C)ccc21
151 to 152 °C | O=C1c2ccccc2CSc2ccc(Br)cc21
153 to 155 °C | CCNc1ncc(S(=O)(=O)NCC)cc1[N+](=O)[O-]
154 to 156 °C | COc1cc2c(c(Cl)c1Cl)C(=O)CC2
235 to 236 °C | CC1(NC(=O)c2ccccc2)COC(c2nc(-c3ccc(F)cc3)c(-c3ccncc3)[nH]2)OC1 (stereo unspecified)
91 to 93 °C | C[C@H](CNC(=O)COc1cc(C(F)(F)F)c2c(-c3ccccc3)nn(C)c2n1)c1ccccc1
67 to 68 °C | CC(C)CC(=O)Nc1ccccc1
135 to 136 °C | CC(C)n1cnc2c(Cl)nc(N)nc21
149 to 150 °C | CC(=O)c1c(-c2ccc(Cl)cc2)c(-c2ccc(Cl)cc2)nn(CCN(C)C)c1=O
134 to 136 °C | COc1ccccc1NC(=O)Nc1ccc(N2CCN(C(=O)Nc3ccc(OCCO)cc3Cl)CC2)cc1
72 to 73 °C | CC(C)(C)OC(=O)N1C[C@@H](O)C[C@H]1C(=O)OCc1ccccc1
148 to 149 °C | CCN(CC)CCN1C(=O)C(OC(C)=O)C(c2ccc(OC)cc2)Sc2c1ccc1ccccc21 (stereo unspecified)
96 to 97 °C | Cc1c(Cl)c(N)cc(Cl)c1Oc1ccc(Cl)cc1Cl
115 to 116 °C | CC(=O)c1ccc(OCc2ccccc2)c(CCCc2ccccc2)c1O
170 to 172 °C | CC(C)Nc1cccc2c1C(=O)c1cccc(NC(C)C)c1C2=O
184 °C | COc1cccc(C(=O)NCCc2ccc(-c3ccc(OC(C)(C)C(=O)O)cc3)cc2)c1OC
61 to 62 °C | O[C@H](CCc1cccnc1)COc1ccc(-c2cccc(F)c2)cc1
99 °C | Oc1ccc(SCCCN2CCOCC2)c(O)c1
74.5 to 76 °C | CCOc1cccnc1CO
175 to 177 °C | NCCCCn1c(-c2ccccc2)nc2c(N)nc3ccccc3c21

SMILES | melting point
CCn1nc(C)c2nc(C)nc(N3CC3)c21 | 66 to 69 °C
COc1ccc(C=C(C#N)C#N)c2c1OC(C)(C)C2 | 198 to 200 °C
CN1C(=O)CN=C(c2ccccc2F)c2cc(NC(=O)N3CCCC3)ccc21 | 159 to 160 °C
O=C(Cl)C1CCCCC1 | 41 to 42 °C
